Literature values as cited in patent US6924273B2, “Chondroprotective/restorative compositions and methods of use thereof” (priority 2000, dated 2005).

Key:
[1] = system: mice; conditions: 5000 mg/kg orally
[2] = system: rats; conditions: 5000 mg/kg orally
[3] = oral administration
[4] = oral administration; remark: listed apart in the source

N[C@H]1C(O)O[C@H](CO)[C@@H](O)[C@@H]1O (some centres unmarked) [Glucosamine]
solubility in water: very soluble in water

N[C@H]1C(O)O[C@H](CO)[C@@H](O)[C@@H]1O.O=S(=O)(O)O (some centres unmarked) [Glucosamine sulfate]
mortality (no LD50 established) [1]: no mortality
mortality (no LD50 established) [2]: no mortality
absorbed [3]: greater than 90%

Chondroitin sulfate [CS]
bioavailability [4]: around 15%
